# System: ERK phosphorylation associated with APP based cell signaling
# Test: ERK phosphorylation, Western blot, B103 cells co-transfected with APP
# Description: This effect is not seen with cyclic peptide-2 or cyclic peptide-3. […] Cyclic peptide-1 is APP specific
# ERK phosphorylation is associated with cell signaling. […] This assay was based on a western blot analysis.
substance,measurement,setting,value
C-P-H-F-C [cyclic peptide-2],ERK phosphorylation,"Western blot, APP cells (B103 co-transfected with APP), cyclic peptide-1 at 21 uM",not seen
same,modulate ERK phosphorylation and/or switch APP processing from aberrant to normal,cyclized loop peptides prepared and tested,shown to modulate ERK phosphorylation and/or to switch APP processing from aberrant to normal

# Source: patent US9534016B2, “Netrin loop peptide mimetics and uses thereof” (Buck Institute for Research on Aging, priority 2011, dated 2017)
